Consider 20 compounds from patent US5773444A, “Quinazolines as inhibitors of endothelin converting enzyme” (Warner-Lambert Company, priority 1997, dated 1998).

Structures can show the parent of a compound that is named as a salt.

The target in one experiment is T1, endothelin converting enzyme (ECE) (Homo sapiens, UniProt P42892).
T1 construct: ECE was partially purified from EA.hy926 grown in 150 roller; endogenous in cells; host or cells: EA.hy926 (human umbilical vein endothelial cells fused with A549); detergent-solubilised membranes, RCA-I lectin eluate
T1 sequence (P42892 whole entry, the tested form may be a part): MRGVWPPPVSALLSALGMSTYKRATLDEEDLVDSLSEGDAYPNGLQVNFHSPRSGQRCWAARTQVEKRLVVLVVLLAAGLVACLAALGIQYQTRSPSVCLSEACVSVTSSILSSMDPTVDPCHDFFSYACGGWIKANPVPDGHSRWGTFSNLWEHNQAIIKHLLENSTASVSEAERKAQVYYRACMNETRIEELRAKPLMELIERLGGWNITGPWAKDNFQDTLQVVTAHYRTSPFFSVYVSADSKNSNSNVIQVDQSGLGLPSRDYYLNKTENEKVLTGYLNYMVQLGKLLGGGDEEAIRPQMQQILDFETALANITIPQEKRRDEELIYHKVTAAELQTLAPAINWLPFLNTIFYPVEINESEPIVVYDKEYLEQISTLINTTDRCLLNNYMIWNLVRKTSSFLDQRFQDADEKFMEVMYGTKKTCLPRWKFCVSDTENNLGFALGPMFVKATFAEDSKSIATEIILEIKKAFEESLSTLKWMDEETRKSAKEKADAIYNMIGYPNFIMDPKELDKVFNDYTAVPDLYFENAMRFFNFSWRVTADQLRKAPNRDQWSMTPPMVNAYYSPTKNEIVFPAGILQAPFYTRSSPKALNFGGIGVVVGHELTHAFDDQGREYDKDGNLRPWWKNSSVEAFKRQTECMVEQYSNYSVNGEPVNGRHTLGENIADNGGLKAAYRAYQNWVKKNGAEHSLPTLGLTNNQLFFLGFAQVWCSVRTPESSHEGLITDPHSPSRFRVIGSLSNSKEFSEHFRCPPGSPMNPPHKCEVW
In words: ECE assay (partially purified ECE from EA.hy926, ET-1 production by RIA).
Conditions: not given
The class given is biochemical.
With `O=C(O)CN(CCN(CC(=O)O)CC(=O)O)CC(=O)O` [EDTA], the “inhibition of the enzyme (in words)” value was “inhibited”.

The experiment is the same for the next values; noted with them: 10 μM big ET-1, pH 7.0, 1.5 hours at 37° C., 3% DMSO; read-out: IC50 (Table III, Biological Activity of Compounds of the Present Invention).
Consider `CCN1CCCC(Nc2nc(-c3ccccc3)nc3ccc(I)cc23)C1` (centres unmarked) [Example 2, (1-Ethyl-piperidin-3-yl)-(6-iodo-2-phenyl-quinazolin-4-yl)-amine], for which the IC50 was found to be 9.2 ± 0.8 µM.
For `CCN1CCCC(Nc2nc(C(Cl)(Cl)Cl)nc3ccc([N+](=O)[O-])cc23)C1` (centres unmarked) [Example 4, (1-Ethyl-piperidin-3-yl)-(6-nitro-2-trichloromethyl-quinazolin-4-yl)-amine], the IC50 is 29.1 ± 5.4 µM.
For `CCN1CCCC(Nc2nc(C(C)(C)C)nc3ccc(I)cc23)C1` (centres unmarked) [Example 5, (2-tert-Butyl-6-iodo-quinazolin-4-yl)-(1-ethyl-piperidin-3-yl)-amine], the half-inhibitory concentration (IC50) worked out at 17.6 ± 1.7 µM.
On the same count and under the same terms, the value for `NCCNc1nc(C(Cl)(Cl)Cl)nc2ccc(I)cc12` [Example 6, N-(6-Iodo-2-trichloromethyl-quinazolin-4-yl)-ethane-1,2-diamine hydrochloride] was 29.6 ± 6 µM; that for `CNCCNc1nc(C(Cl)(Cl)Cl)nc2ccc(I)cc12` [Example 7, N-(6-Iodo-2-trichloromethyl-quinazolin-4-yl)-N^1-methyl-ethane-1,2-diamine] was 22.1 ± 4.8 µM; that for `CN(C)CCNc1nc(C(Cl)(Cl)Cl)nc2ccc(I)cc12` [Example 8, N-(6-Iodo-2-trichloromethyl-quinazolin-4-yl)-N^1,N^1-dimethyl-ethane-1,2-diamine] was 11.1 ± 2.7 µM.
In the case of `ClC(Cl)(Cl)c1nc(NCCN2CCCCC2)c2cc(I)ccc2n1` [Example 9], the half-maximal inhibitory concentration (IC50) is 3.7 ± 1.6 µM.
On the same count and under the same terms, the value for `ClC(Cl)(Cl)c1nc(NCCN2CCOCC2)c2cc(I)ccc2n1` [Example 10, (6-Iodo-2-trichloromethyl-quinazolin-4-yl)-(2-morpholin-4-yl-ethyl)-amine] was 25.4 ± 4.2 µM; that for `CCN1CCCC1CNc1nc(C(Cl)(Cl)Cl)nc2ccc(I)cc12` (centres unmarked) [Example 11, (1-Ethyl-pyrrolidin-2-yl-methyl)-(6-iodo-2-trichloromethyl-quinazolin-4-yl)-amine] was 12.4 ± 1 µM.
The same measure, in the same setting: the value for `ClC(Cl)(Cl)c1nc(NC2CN3CCC2CC3)c2cc(I)ccc2n1` (centres unmarked) [Example 12, (1 -Aza-bicyclo[2,2,2,]oct-3-yl)-(6-iodo-2-trichloromethyl-quinazolin-4-yl)-amine] was 11.1 ± 1.7 µM.
Still for that read-out and setting: the value for `CC(C)N(CCNc1nc(C(Cl)(Cl)Cl)nc2cc(Cl)ccc12)C(C)C` [Example 13, N-(7-Chloro-2-trichloromethyl-quinazolin-4-yl)-N',N'-diisopropyl-ethane-1,2-diamine] was 66.6 ± 11.8 µM.
For the compound `O=C(O)CN1CCCC(Nc2nc(C(Cl)(Cl)Cl)nc3ccc(I)cc23)C1` (centres unmarked) [Example 14, [3-(6-Iodo-2-trichloromethyl-quinazolin-4-yl-amino)-piperidin-1-yl]-acetic acid potassium salt], the half-maximal inhibitory concentration (IC50) was 75.5 ± 11.6 µM.
As to `CN(C)CC(CN(C)C)Nc1nc(C(Cl)(Cl)Cl)nc2ccc(I)cc12` [Example 16, N'-(6-Iodo-2-trichloromethyl-quinazolin-4-yl)-N,N,N",N"-tetramethyl-propane-1,2,3-triamine monohydrochloride], the half-inhibitory concentration (IC50) is 8.4 ± 1.4 µM.
For `CCN1CCCC(Nc2nc(C(F)(F)F)nc3ccc(I)cc23)C1` (centres unmarked) [Example 17, (1-Ethyl-piperidin-3-yl)-(6-iodo-2-trifluoromethyl-quinazolin-4-yl)-amine], the 50% inhibitory concentration (IC50) came to 2.3 ± 0.3 µM.

Staying with this experiment, now noted: partially purified ECE from EA.hy926.
On to `c1cnc2c(c1)ccc1cccnc12` [1,10-phenanthroline], for which the “inhibition of the enzyme (in words)” value is “inhibited”.
`O=C(O)CN(CCOCCOCCN(CC(=O)O)CC(=O)O)CC(=O)O` [EGTA]: the “inhibition of the enzyme (in words)” value is recorded as “inhibited”.
Consider `CC(C)C[C@H](NC(=O)[C@H]1O[C@@H]1C(=O)O)C(=O)NCCCCN=C(N)N` [Example E-64], for which the “inhibition of the enzyme (in words)” value is recorded as “not inhibited”.
On to `CC(C)C[C@H](NC(=O)[C@@H](O)[C@H](N)Cc1ccccc1)C(=O)O` [bestatin], for which the “inhibition of the enzyme (in words)” value was “not inhibited”.
Regarding `C[C@H](CS)C(=O)N1CCC[C@H]1C(=O)O` [captopril], the “inhibition of the enzyme (in words)” value was “not inhibited”.
